From PubChem BioAssay (NCI)
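96-well plates; 48 h exposure; 5 concentrations. Endpoints by linear interpolation between flanking doses. Not reached: highest tested concentration assigned. Abbreviation: GI50, concentration required for 50% inhibition of growth. TGI is the concentration that stops growth completely.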

Experiments:
Assay in all cases: NCI anticancer screen, dose series, 48 h
K-562 leukemia = test system: K-562 leukemia
SK-OV-3 ovarian = test system: SK-OV-3 ovarian
T-47D breast = test system: T-47D breast
SK-MEL-5 melanoma = test system: SK-MEL-5 melanoma
HS 578T breast = test system: HS 578T breast
SK-MEL-28 melanoma = test system: SK-MEL-28 melanoma
PC-3 prostate = test system: PC-3 prostate
786-0 renal = test system: 786-0 renal
TK-10 renal = test system: TK-10 renal
HOP-62 NSCLC = test system: HOP-62 NSCLC
ACHN renal = test system: ACHN renal
SF-268 CNS = test system: SF-268 CNS
SNB-75 CNS = test system: SNB-75 CNS
OVCAR-3 ovarian = test system: OVCAR-3 ovarian
IGROV1 ovarian = test system: IGROV1 ovarian
UACC-257 melanoma = test system: UACC-257 melanoma
EKVX NSCLC = test system: EKVX NSCLC
RXF 393 renal = test system: RXF 393 renal
UO-31 renal = test system: UO-31 renal
UACC-62 melanoma = test system: UACC-62 melanoma
HCT-116 colon = test system: HCT-116 colon
HOP-92 NSCLC = test system: HOP-92 NSCLC
MDA-MB-468 breast = test system: MDA-MB-468 breast
HT29 colon = test system: HT29 colon
DU-145 prostate = test system: DU-145 prostate
HL-60(TB) leukemia = test system: HL-60(TB) leukemia
COLO 205 colon = test system: COLO 205 colon
MDA-MB-231 breast = test system: MDA-MB-231 breast
OVCAR-8 ovarian = test system: OVCAR-8 ovarian
MCF7 breast = test system: MCF7 breast
NCI-H460 lung = test system: NCI-H460 lung
U251 CNS = test system: U251 CNS
CCRF-CEM leukemia = test system: CCRF-CEM leukemia
BT-549 breast = test system: BT-549 breast
NCI-H23 lung = test system: NCI-H23 lung
A498 renal = test system: A498 renal
OVCAR-4 ovarian = test system: OVCAR-4 ovarian
SF-295 CNS = test system: SF-295 CNS
LOX IMVI melanoma = test system: LOX IMVI melanoma
OVCAR-5 ovarian = test system: OVCAR-5 ovarian
RPMI-8226 leukemia = test system: RPMI-8226 leukemia
HCT-15 colon = test system: HCT-15 colon
KM12 colon = test system: KM12 colon
SK-MEL-2 melanoma = test system: SK-MEL-2 melanoma
A549 NSCLC = test system: A549 NSCLC
NCI-H226 lung = test system: NCI-H226 lung
SF-539 CNS = test system: SF-539 CNS
NCI/ADR-RES ovarian = test system: NCI/ADR-RES ovarian
MOLT-4 leukemia = test system: MOLT-4 leukemia
CAKI-1 renal = test system: CAKI-1 renal
MALME-3M melanoma = test system: MALME-3M melanoma
MDA-MB-435 = test system: MDA-MB-435
SW-620 colon = test system: SW-620 colon
NCI-H522 lung = test system: NCI-H522 lung
M14 melanoma = test system: M14 melanoma
SNB-19 CNS = test system: SNB-19 CNS
HCC-2998 colon = test system: HCC-2998 colon
SR leukemia = test system: SR leukemia
SN12C renal = test system: SN12C renal

COc1cc2c(c(OC)c1OC)C(=O)CC(c1cccc(NC(=O)c3cccc([N+](=O)[O-])c3)c1)O2 (stereo not drawn)
GI50 (K-562 leukemia): 6.03 µM
TGI (K-562 leukemia): > 100 µM
GI50 (SK-OV-3 ovarian): > 100 µM
TGI (SK-OV-3 ovarian): > 100 µM
GI50 (T-47D breast): 3.74 µM
TGI (T-47D breast): > 100 µM
GI50 (SK-MEL-5 melanoma): 6.3 µM
TGI (SK-MEL-5 melanoma): 46.7 µM
GI50 (HS 578T breast): 7.29 µM
TGI (HS 578T breast): > 100 µM
GI50 (SK-MEL-28 melanoma): 35.2 µM
TGI (SK-MEL-28 melanoma): > 100 µM
GI50 (PC-3 prostate): 4.66 µM
TGI (PC-3 prostate): > 100 µM
GI50 (786-0 renal): 47.9 µM
TGI (786-0 renal): > 100 µM
GI50 (TK-10 renal): 51.6 µM
TGI (TK-10 renal): > 100 µM
GI50 (HOP-62 NSCLC): 98.7 µM
TGI (HOP-62 NSCLC): > 100 µM
GI50 (ACHN renal): 21.5 µM
TGI (ACHN renal): > 100 µM
GI50 (SF-268 CNS): 18.5 µM
TGI (SF-268 CNS): > 100 µM
GI50 (SNB-75 CNS): 7.73 µM
TGI (SNB-75 CNS): > 100 µM
GI50 (OVCAR-3 ovarian): 9.49 µM
TGI (OVCAR-3 ovarian): > 100 µM
GI50 (IGROV1 ovarian): 18.6 µM
TGI (IGROV1 ovarian): > 100 µM
GI50 (UACC-257 melanoma): 19.5 µM
TGI (UACC-257 melanoma): > 100 µM
GI50 (EKVX NSCLC): > 100 µM
TGI (EKVX NSCLC): > 100 µM
GI50 (RXF 393 renal): 3.62 µM
TGI (RXF 393 renal): > 100 µM
GI50 (UO-31 renal): 4.79 µM
TGI (UO-31 renal): > 100 µM
GI50 (UACC-62 melanoma): 4.07 µM
TGI (UACC-62 melanoma): 65.4 µM
GI50 (HCT-116 colon): 9.24 µM
TGI (HCT-116 colon): > 100 µM
GI50 (HOP-92 NSCLC): 4.29 µM
TGI (HOP-92 NSCLC): > 100 µM
GI50 (MDA-MB-468 breast): 2.07 µM
TGI (MDA-MB-468 breast): 8.94 µM
GI50 (HT29 colon): 26.8 µM
TGI (HT29 colon): > 100 µM
GI50 (DU-145 prostate): 21.5 µM
TGI (DU-145 prostate): > 100 µM
GI50 (HL-60(TB) leukemia): 3.84 µM
TGI (HL-60(TB) leukemia): 29.1 µM
GI50 (COLO 205 colon): 28 µM
TGI (COLO 205 colon): > 100 µM
GI50 (MDA-MB-231 breast): 18.8 µM
TGI (MDA-MB-231 breast): > 100 µM
GI50 (OVCAR-8 ovarian): 4.62 µM
TGI (OVCAR-8 ovarian): > 100 µM
GI50 (MCF7 breast): 6.99 µM
TGI (MCF7 breast): > 100 µM
GI50 (NCI-H460 lung): 17.2 µM
TGI (NCI-H460 lung): > 100 µM
GI50 (U251 CNS): 20.1 µM
TGI (U251 CNS): > 100 µM
GI50 (CCRF-CEM leukemia): 3.44 µM
TGI (CCRF-CEM leukemia): > 100 µM
GI50 (BT-549 breast): 5 µM
TGI (BT-549 breast): 57.7 µM
GI50 (NCI-H23 lung): 32.8 µM
TGI (NCI-H23 lung): > 100 µM
GI50 (A498 renal): 67.4 µM
TGI (A498 renal): > 100 µM
GI50 (OVCAR-4 ovarian): 7.98 µM
TGI (OVCAR-4 ovarian): > 100 µM
GI50 (SF-295 CNS): 18.7 µM
TGI (SF-295 CNS): > 100 µM
GI50 (LOX IMVI melanoma): 13.9 µM
TGI (LOX IMVI melanoma): > 100 µM
GI50 (OVCAR-5 ovarian): 74.6 µM
TGI (OVCAR-5 ovarian): > 100 µM
GI50 (RPMI-8226 leukemia): 3.24 µM
TGI (RPMI-8226 leukemia): 48.6 µM
GI50 (HCT-15 colon): 6.57 µM
TGI (HCT-15 colon): > 100 µM
GI50 (KM12 colon): 3.39 µM
TGI (KM12 colon): > 100 µM
GI50 (SK-MEL-2 melanoma): 7.49 µM
TGI (SK-MEL-2 melanoma): 48.8 µM
GI50 (A549 NSCLC): 21.7 µM
TGI (A549 NSCLC): > 100 µM
GI50 (NCI-H226 lung): 5.77 µM
TGI (NCI-H226 lung): > 100 µM
GI50 (SF-539 CNS): 29.3 µM
TGI (SF-539 CNS): > 100 µM
GI50 (NCI/ADR-RES ovarian): 4.88 µM
TGI (NCI/ADR-RES ovarian): > 100 µM
GI50 (MOLT-4 leukemia): 3.93 µM
TGI (MOLT-4 leukemia): > 100 µM
GI50 (CAKI-1 renal): 6.66 µM
TGI (CAKI-1 renal): > 100 µM
GI50 (MALME-3M melanoma): 10.1 µM
TGI (MALME-3M melanoma): > 100 µM
GI50 (MDA-MB-435): 4.3 µM
TGI (MDA-MB-435): 21.5 µM
GI50 (SW-620 colon): 10.9 µM
TGI (SW-620 colon): > 100 µM
GI50 (NCI-H522 lung): 4.65 µM
TGI (NCI-H522 lung): 49.8 µM
GI50 (M14 melanoma): 19.2 µM
TGI (M14 melanoma): > 100 µM
GI50 (SNB-19 CNS): 36.9 µM
TGI (SNB-19 CNS): > 100 µM
GI50 (HCC-2998 colon): 55.1 µM
TGI (HCC-2998 colon): > 100 µM
GI50 (SR leukemia): 3.15 µM
TGI (SR leukemia): > 100 µM
GI50 (SN12C renal): 11.2 µM
TGI (SN12C renal): > 100 µM
